Where “and” joins values, the source holds several entries; their conditions need not be identical. Equal values may be shown once.
Tests used:
[1] = system: Haemonchus contortus eggs; experiment: Haemonchus contortus egg hatching assay; type: in vivo; details: for Hatch Rate: 60 μM, 48 hours, ± standard deviation; for reduction of egg hatching relative to the untreated mock control: 60 micromolar, 48-hour treatment
Experimental: Fresh sheep faeces containing eggs of the MHco3(ISE) strain of H. contortus was supplied by Dr. Doug Colwell and Dawn Gray (Lethbridge Research Station, Agriculture and Agri-Food Canada). Experimental infections used to generate this material were carried out using established methods^72, and were approved by the Lethbridge AAFC Animal Care committee and conducted under animal use license ACC1407. Sheep faeces containing H. contortus eggs were stored at 20° C. for no longer than 48 h before harvesting eggs for use. Eggs were isolated from faeces using a standard saturated salt flotation method^61 immediately before each egg hatch assay. Approximately 100 eggs suspended in 100 μl of water were added to each well of a 96-well plate, and the exemplary compounds of the application were tested at 60 μM, 0.6% DMSO (v/v). Egg hatch rates were determined 48 hours after the initial set-up of the assay by the addition of iodine tincture to stop development. Example 13: Arabidopsis thaliana greening experiments

[2] = Saccharomyces cerevisiae (budding yeast) dose-response experiments; type: cell-based; details: Saccharomyces cerevisiae, yeast strain RY0568 culture; non-target system; growth over 18 hours; read-out: S. cerevisiae LC50
Experimental: A saturated culture of the yeast strain RY0568 was diluted to an OD600 of 0.015 with fresh YPD media (see ref. 62). 100 μL of this dilute yeast suspension was added to each well of a 96-well plate. The yeast were grown for 4 hours at 30° C. with shaking at 140 rpm. Using a multichannel pipette, 1 μL of chemical solution was added to each well to achieve the desired final concentrations. The final DMSO concentration was 1% (v/v). The microwell plate was then loaded into a TECAN plate reader set at 30° C. The OD600 of each well was measured over an 18-hour period, and the plate was shaken intermittently throughout the run. The areas under the resultant growth curves were calculated using R scripts adapted from those found in the MESS package. The area under the curve at each concentration of a dose-response assay was divided by the area under the curve for the corresponding DMSO control, resulting in a “relative fitness” value for each concentration tested. Three biological replicates were performed for each dose-response experiment, and the relative fitness values were averaged across the three replicates.

C. elegans = C. elegans minimum lethal concentration dose-response; type: in vivo, Caenorhabditis elegans; details: Caenorhabditis elegans, C. elegans viability
Experimental: Forty microliters of an HB101 bacterial suspension in liquid NGM (see above) was added to each well of a 96-well flat-bottom culture plate, after which approximately 25 synchronized L1 worms, in 10 μl of M9 buffer (see ref. 59 for the recipe), were added to each well. The synchronized L1 worms were obtained from an embryo preparation performed the previous day (see ref. 59 for the protocol). For the L1 assays, 0.5 μl of chemical solution (or DMSO alone) was immediately added to the wells using a multichannel pipette, the final DMSO concentration is 1% (v/v). The worms were incubated for 3 days at 20° C. and the number of viable animals was counted. […] Although the counts were performed after 3 days of incubation in the chemical, it was noted that the L1s were dead within 24 hours of the addition of the chemicals. For the L2/L3 assays, the worms were incubated in the absence of chemical for 1 day at 20° C. until they reached the L2/L3 stage, at which point chemical was added as described above. The worms were then allowed to incubate for 2 days at 20° C. and the number of viable animals was counted as described for the L1 assay. For the L4 assays, the worms were incubated for 2 days at 20° C. before the addition of chemicals. The L4-stage worms were then incubated in chemical for an additional day before quantifying the number of viable animals. The adult assays were performed the same way as the L4 assays, however HT115 E. coli carrying the empty dsRNA expressing vector L4440 was used in place of HB101 and the worms were cultured at 25° C. as opposed to 20° C. for the entirety of the experiment. The HT115 suspension was made by concentrating a bacterial culture, with an OD600 of ˜ 0.8, five-fold with liquid NGM containing 1 mM IPTG and 100 μg/ml carbenicillin. The HT115 cells were induced with 1 mM IPTG for one hour before concentrating with NGM.
Compounds Ia to Im, dose-response assays were performed with C. elegans. 8 of the compounds killed C. elegans with minimum lethal concentrations less than or equal to 100 μM (Table 6). Compounds Ia, Ic, and Ij were the most potently lethal nematicides in this assay, having minimum lethal concentrations of 6.25 μM and below. The positive control nematicide tioxazafen killed nematodes at 3.13 μM and above.

M. chitwoodi J2 larvae = experiment: Meloidogyne chitwoodi in vitro assays (J2 movement); type: in vivo; details: 45 μM, 2 days, relative to DMSO control
Experimental: M. incognita (Kofoid & White) Chitwood Race 1 (originally isolated in Maryland) was used for all experiments, and was maintained on pepper (Capsicum annuum L.) cv. PA-136 in a greenhouse as previously described^64. Infective J2 juveniles were collected as described in ref.65. The microwell dose-response experiments were carried out similarly to previously described protocols^64, 66. In brief, 100 J2s, in 10 μL of deionized water, were added to the wells of 96-well polystyrene plates, after which 190 μL of deionized water containing dissolved chemical, or DMSO alone, was added to each well. The chemicals were tested at 45 μM, and the final concentration of DMSO in each well was 0.5% (v/v). The wells were covered with a plastic adhesive strip, and the lids of the plates were sealed with parafilm. The plates were incubated at 25° C. The mobile fraction of worms was quantified by counting the number of mobile and immobile worms after 2 days of incubation, and then dividing the number of mobile worms by the total number of worms in the well. Three technical replicates were performed for each treatment, and an average value for the mobile fraction of worms was calculated across the three replicates. The percent effectiveness at inhibiting nematode movement was calculated by dividing the average value for the chemical treatment by the average value for the DMSO control, then subtracting this value from 1, and then multiplying by 100.
M. chitwoodi race 1 (the strain commonly found in the pacific northwest of the United States) was used for all experiments, and was maintained on tomato plants (Solanum lycopersicum ‘Rutgers’) as previously described^73. The M. chitwoodi in vitro assays were performed identically to the M. incognita in vitro assays (see above).

SMILES	Hatch Rate [1] [%]	reduction of egg hatching relative to the untreated mock control [1]	CC50 at 18 h [2] [µM]	minimal effective concentration (C. elegans)	% effectiveness at reducing M. chitwoodi movement (M. chitwoodi J2 larvae) [%]
Clc1ccc(-c2cn3ccsc3n2)cc1 [Ia]	1.0 ± 1.7	99%	> 100	1.5 µg/mL	–
Fc1ccc(-c2cn3ccsc3n2)cc1 [Ib]	0.0 ± 0.0	completely inhibited egg hatching	> 100	25 µM and 5.5 µg/mL	37.5
Cc1csc2nc(-c3ccccc3)cn12 [Compound Ie]	–	–	> 100	> 100 µM and > 21.4 µg/mL	24.3

Source: US20220264883A1, “IMIDAZOTHIAZOLE COMPOUNDS AND METHODS FOR TREATING PLANT NEMATODE INFECTIONS” (The Governing Council of the University of Toronto, priority 2019, published 2022)
